What all share (format): cell-based, human
One assay concerns mda-8. The experiment in a line: mda-8 expression (Northern blotting). As to conditions: H0-1. The method, then:
(§1) The mass excision of the library was performed using ExAssist helper phage as described above. The SOLR strain of Escherichia coli and cDNA phagemids were mixed at 37° C. for 15 min and plated onto LB plates containing ampicillin and IPTG/X-gal. White colonies were chosen at random, isolated and grown in LB medium. Plasmid minireps and restriction enzyme digestions were performed to confirm the presence of inserts. The inserts were isolated and used as robes for Northern blotting analysis (5,25). […] Radiolabeled probes were generated by random oligonucleotide priming (25). Prehybridization, hybridization, posthybridization washes, and autoradiography were performed as described (5,18,25).

In a further assay the test system is mda-4. The experiment in a line: mda-4 expression (Northern blotting). The conditions noted are these: H0-1. The method, then: as §1
In the next assay the test system is mda-6 (WAF1/CIP1/SDI1). The conditions noted are these: HL-525, RA 1 μM; for time of treatment at which mda-6 expression is induced: TPA 3 nM, Vit D3 400 nM, 1 to 12 h test period. The method, then: HL-60 cells were originally provided by Dr. R. C. Gallo (National Cancer Institute, Bethesda, Md.) (Collins et al., 1978; Huberman & Callaham, 1979). HL-60 cells designated HL-525 were derived by cloning HL-60 cells after subculturing 102 times in the presence of increasing concentrations (up to 3 μM) of TPA at 5- to 8-day intervals (Homma et al., 1986; Mitchell et al., 1986). […] Prior to the experiments described in this study, the HL-525 cells were subcultured more than 20 times in the absence of TPA. Cells were grown in 100-mm tissue culture dishes in RPMI 1640 medium supplemented with 20% fetal bovine serum, penicillin (100 units/ml) and streptomycin (100 μg/ml) (Grand Island Biological Co., NY) at 37° C. in an atmosphere of 5% CO2 in air in a humidified incubator. The 1,25-(OH)2D3(Vit D3) and TPA were dissolved in a final concentration of 0.01% DMSO, and all-trans retinoic acid (RA) was dissolved in 0.1% DMSO in culture medium. […] Control cultures were treated with DMSO at a final concentration of 0.1% in culture medium. For experiments designed to test the effect of DMSO on HL-60 and HL-525 cells, DMSO was added to tissue culture medium at a final concentration of 1%. Stock solutions of CHX (10 mg/ml) were prepared in culture medium. CHX was added at a final concentration of 10 μg/ml. To examine a requirement for protein synthesis on mda-6 gene expression, HL-60 or HL-525 cells were seeded into 150 mm Petri dishes (5×10^5 cells/ml) in 30 ml of medium. CHX was added to a final concentration of 10 μg/ml 15 min prior to the addition of TPA to 3 nM. Cells were harvested at various times after addition of TPA for subsequent RNA isolation and analysis.
RNA was purified by centrifugation through a CsC1 cushion as described by Chirgwin et al. (1979). Ten μg of RNA was denatured with glyoxal/DMSO, electrophoresed on 1.0% agarose gels, transferred to nylon membranes, hybridized to a ^32P-labeled mda-6 probe (Jiang and Fisher, 1993) and then after stripping the membrane hybridized to a ^32P-labeled rat GAPDH probe (Fort et al., 1985), as described previously (Reddy et at., 1991; Su et al., 1991; Jiang et al., 1992). Following hybridization, the filters were washed and exposed for autoradiography (Reddy et al., 1991; Su et al., 1991; Jiang et al., 1992). mda-6 and GAPDH gene expression were also determined by reverse transcription-polymerase chain reaction (RT-PCR) as described (Adollahi et al. 1991; Lin et al., 1994). Total cytoplasmic RNA was treated with 0.5 units DNase (Boehringer-Mannheim Biochemicals)/μg RNA in 15% glycerol, 10 mM Tris, pH 7.5, 2.5 mM MgCl2, 0.1 mM EDTA, 80 mM KC1, 1 mM CaCl2 and 1 unit/ml RNasin (Promega) at 30° C. for 10 min. RNA was extracted with phenol-chloroform, precipitated with sodium acetate/ethanol and RNA pellets were resuspended in diethylpyrocarbonate-treated H2O. One μg of total RNA was reverse transcribed with 200 units of murine leukemia virus reverse transcriptase (Bethesda Research Laboratories) in 20 μl containing 1 mM deoxyribonucleotide triphosphates, 4 mM MgCl2, 10 mM Tris, pH 8.3, 50 mM KC1, 0.001% gelatin and 0.2 μg oligo-dT primer. Samples were diluted to 100 μl with buffer containing 0.2 mM deoxyribonucleotide triphosphates, 2 mM MgCl2, 10 mM Tris, pH 8.3, 50 mM KC1 and 0.001% gelatin. […]

Setting [1] is: 96 hours, doses of FIG. 15 legend.
[2] abbreviates: 24 hours, doses of FIG. 19, phenyl butyrate 24 hours, 4 days or 7 days.

A value given as a limit tells only on which side of the number the result lay.

As to `CC1=C(/C=C/C(C)=C/C=C/C(C)=C/C(=O)O)C(C)(C)CCC1` [RA, trans-retinoic acid], the mda-8 expression result in the assay on mda-8 (setting [1]) is “No change in expression”. The mda-4 expression entry in the assay with mda-4 (setting [2]) is “No or only a small change in expression”. In addition, the “time of treatment at which mda-6 expression is detected” value in the assay on mda-6 (WAF1/CIP1/SDI1) (extended treatment 12 h to 6 d) amounted to 2 days. Also, the “time of treatment at which mda-6 expression is induced” value with mda-6 (WAF1/CIP1/SDI1) is more than 12 h.
Regarding `C=C(C)[C@@]12O[C@@]3(c4ccccc4)O[C@@H]1[C@@H]1[C@@H]4O[C@]4(CO)[C@@H](O)[C@]4(O)C(=O)C(C)=C[C@H]4[C@@]1(O3)[C@H](C)[C@H]2OC(=O)/C=C/C=C/c1ccccc1` [MEZ, mezerein], the mda-8 expression result in the assay with mda-8 (setting [2]) and in the assay with mda-8 (setting [1]) was “No change in expression” each time. In addition, the mda-4 expression result in the assay on mda-4 (setting [1]) is given as “No or only a small change in expression”.
As to `CCCCCCCCCCCCCC(=O)O[C@@H]1[C@@H](C)[C@@]2(O)[C@@H](C=C(CO)C[C@]3(O)C(=O)C(C)=C[C@@H]23)[C@@H]2C(C)(C)[C@]12OC(C)=O` [TPA, 12-O-tetradecanoyl-phorbol-13-acetate], in the assay with mda-6 (WAF1/CIP1/SDI1), the “time of treatment at which mda-6 expression is induced” value came out at 12 h.
